Earlier results in publication PMC4233149 (Clinical cancer research : an official journal of the …, 2014).

Conditions: alternate days (QOD), previously established; cited from earlier work

Q: With `NC1(c2ccc(-c3nc4ccn5c(=O)[nH]nc5c4cc3-c3ccccc3)cc2)CCC1` [MK-2206] as the compound, how does the “maximum tolerated dose (MTD)” value read?
A: 60 mg
